Assay results reported in patent US20080160101A1, “Composition For Use Against One Or More Pathogens” (Bionext, priority 2004, published 2008).
Values joined by “and” are separate entries in the source; they are usually repeats but may differ in a detail not shown here. Equal values may be shown once. “Also recorded” adds a separate entry of the source.

Experiments:
Botrytis cinerea = assay: Protection of wounded apples against Botrytis cinerea (lesion diameter, percentage of protection); type: in vivo; conditions: for Average infection / Efficiency %: Table 10, salt + strain O 10^5, CaCl2 20 g/l, CG 2 g/l, CGt 1.805 g/l, TC 0.848 g/l, PC 0.964 g/l, 5 days; for results of combination of salt with C. oleophila, in words (conclusions): salt combined with C. oleophila, apples, salts tested only in Example 5
Penicillium expansum = assay: Protection of wounded apples against postharvest rot caused by Penicillium expansum (lesion diameter, percentage of protection); type: in vivo; parameters: Average infection: unit not given here
Protocol: Apples (Malus domestica Borkh cv. Golden) were harvested from commercial orchards maintained with standard cultural practices in Belgium and placed in regular long term storage. Commercial class I fruits were used. They were bought from wholesale dealers and stored in a cold room at 4±1° C. for maximum 15 days before use.
Penicillium expansum (blue mould) strains were initially isolated from apples in Gembloux Belgium. Conidia from pathogen were put in suspension in a glycerol solution (25%) and stored at −70° C. Starting from this stored material, the fungal strain was transferred to PDA medium at 25° C. Conidial suspensions were prepared in an aqueous sterile solution of Tween 20 (0.05%), and were adjusted to the required concentration (10^6 spores/ml) using a Bürker cell.
The antagonistic yeast strain was Candida oleophila Montrocher deposited under number 40564 at the BBCM™/MUCL Culture Collection of the Mycotheque de l'Universite Catholique de Louvain, hereinafter designated as “strain 0”.
This antagonistic yeast strain was isolated from apple surface and stored at −70° C. in a glycerol solution (25%). Before use, the yeast strain was subcultured three times successively at 24 hours intervals on PDA (Potato Dextrose Agar). At the third generation, yeast cells were removed from the culture medium and suspended in isotonic water (NaCl 0.85%). Suspension concentrations were adjusted to the required values after the establishment of a regression line in relation with the micro-organisms suspension absorbance (at 595 nm) and the number of colony forming units (cfu) of the same suspension spread onto PDA.
Fruits were disinfected by dipping for 2 minutes in sodium hypochlorite (10% of the commercial product). They were rinsed in sterile water and dried out under laminar flux before being wounded by removing 4 mm diameter and 2-3 mm deep blocks of tissue from three sites 4-5 cm apart along one side of the surface of the fruits.
The wounds were treated by application of 40 μl of compositions of the state of the art or compositions according to the invention.
After a 24 h at 20° C. incubation period in plastic boxes, the wounds were inoculated with 40 μl of the respective conidial suspensions of the pathogens. The fruits were incubated at 25° C.
[…] At least five fruits (15 wounds) were used per treatment. Most of the time, 15 fruits and 45 wounds were used per treatment.
The percentage of protection provided by the different treatments was calculated from the diameter of lesion caused by the fruit rot agent after the incubation time using the following formula: […]
wherein Y is the percentage of protection; DT is the mean diameter of lesions for the untreated control and DX is the mean diameter of lesions for the treated fruits.
The effect of the compositions according to the invention against postharvest apple rots caused by P. expansum was evaluated under controlled conditions.
(§1) The apples were wounded as described in Example 2 and treated by application of compositions comprising a salt according to the invention and 10^5 cfu C. oleophila, or compositions of the state of the art.
After incubation, the wounds were inoculated with Penicillum expansum. The fruits are further incubated. […] The percentage of protection provided by the different treatments was calculated as described in Example 2.
as §1

[1] = Table 7, salt + strain O 10^5, CaCl2 20 g/l, CG 2 g/l, TC 0.87 g/l, CCA 0.47 g/l
[2] = Table 8, salt + strain O 10^5, CaCl2 20 g/l, CG 2 g/l, CCa 0.47 g/l, CBC 0.762 g/l, CPT 0.486 g/l, CPM 1.485 g/l, 7 days
[3] = Table 9, salt + strain O 10^5, CaCl2 20 g/l, CG 2 g/l, CCa 0.47 g/l, CBC 0.762 g/l, CPT 0.486 g/l, CPM 1.485 g/l, 11 days
[4] = Table 3, first series, CG 2 g/l + strain O 10^5 cfu/ml, 7 days
[5] = Table 4, second series, CG 2 g + strain O 10^5 cfu/ml, 7 days
[6] = Table 5, third series, CG 2 g + strain O 10^5 cfu/ml, 7 days
[7] = Table 6a, salt + strain O 10^5, CG 2 g/l, TC 0.87 g/l, CCa 0.47 g/l, CL 1.34 g/l, CLG 1.3 g/l, CA 1.96 g/l, 7 days
[8] = Table 6b, salt + strain O 10^5, CG 2 g/l, TC 0.87 g/l, CCa 0.47 g/l, CL 1.34 g/l, CLG 1.3 g/l, CA 1.96 g/l, 7 days
[9] = salt + strain O 10^5 cfu/ml compared with strain O alone
[10] = salt combined with C. oleophila, apples

Molecule	Efficiency % (Botrytis cinerea) [%]	Average infection (Penicillium expansum; [2])	Efficiency % (Penicillium expansum; [2]) [%]	Average infection (Penicillium expansum; [3])	Efficiency % (Penicillium expansum; [3]) [%]	Average infection (Penicillium expansum; [7])	Efficiency % (Penicillium expansum; [7]) [%]	Average infection (Penicillium expansum; [8])	Efficiency % (Penicillium expansum; [8]) [%]	results of combination of salt with C. oleophila, in words (conclusions) (Penicillium expansum; [10])	also measured
[Ca+2].[Cl-].[Cl-] [CaCl2, reference compound]	82.4	0.3	87.6	0.6	87.7	–	–	–	–	–	Average infection (Botrytis cinerea): 0.3; Average infection (Penicillium expansum; [1]): 0.7; Efficiency % (Penicillium expansum; [1]): 97.4%
calcium gluconate [CG]	60.7	0.5	77.4	1.5	70.5	4.8	73.8	6.50	74.2	Very good results	Average infection (Penicillium expansum; [4]): 1.5; Protection Efficiency % (Penicillium expansum; [4]): 87.3%; Average infection (Penicillium expansum; [5]): 1.2; Protection Efficiency % (Penicillium expansum; [5]): 90.7%; Average infection (Penicillium expansum; [6]): 2.7; Protection Efficiency % (Penicillium expansum; [6]): 79.3%; Average infection (Penicillium expansum; [1]): 1.7; Efficiency % (Penicillium expansum; [1]): 93.5%; protection against P. expansum, in words (Penicillium expansum; [9]): improved the protection; also recorded: better and enhanced efficacy; protection against P. expansum, in words (Penicillium expansum; salt + strain O 10^5 cfu/ml compared with strain O alone, listed as calcium gluconate): good protection
O=P([O-])(O)O.O=P([O-])(O)O.[Ca+2] [CPM, calcium phosphate monobasic]	–	0.1	94.4	0.7	86.6	–	–	–	–	Very good results	protection against P. expansum, in words (Penicillium expansum; [9]): good protection
O=C([O-])CC(O)(CC(=O)[O-])C(=O)[O-].[K+].[K+].[K+] [PC, potassium citrate]	66.4	–	–	–	–	–	–	–	–	–	Average infection (Botrytis cinerea): 0.5; results of combination of salt with C. oleophila, in words (conclusions) (Botrytis cinerea): Very good results
CC(O)C(=O)[O-].CC(O)C(=O)[O-].[Ca+2] (stereo not drawn) [CL, calcium lactate]	–	–	–	–	–	7.7	58.1	6.06	82.5	–	results of combination of salt with C. oleophila, in words (conclusions) (Penicillium expansum; in vivo): Very good results
O=P([O-])([O-])[O-].O=P([O-])([O-])[O-].[Ca+2].[Ca+2].[Ca+2] [CPT, calcium phosphate tribasic]	–	0.4	84.1	0.9	82.1	–	–	–	–	Very good results	protection against P. expansum, in words (Penicillium expansum; [9]): good protection
O=C([O-])CC(O)(CC(=O)[O-])C(=O)[O-].O=C([O-])CC(O)(CC(=O)[O-])C(=O)[O-].[Ca+2].[Ca+2].[Ca+2] [TC, tricalcium citrate]	78.9	–	–	–	–	2.8	84.8	6.67	83.3	–	Average infection (Botrytis cinerea): 0.3; Average infection (Penicillium expansum; [1]): 1.0; Efficiency % (Penicillium expansum; [1]): 96.4%; results of combination of salt with C. oleophila, in words (conclusions) (Penicillium expansum; in vivo): Very good results
calcium bicarbonate [CBC]	–	0.5	76.5	2.1	59.0	–	–	–	–	Very good results	protection against P. expansum, in words (Penicillium expansum; [9]): good protection
N[C@@H](CCC(=O)[O-])C(=O)[O-].[K+].[K+] [potassium glutamate]	–	–	–	–	–	–	–	–	–	–	results of combination of salt with C. oleophila, in words (conclusions) (Botrytis cinerea): Very good results
calcium ascorbate	–	–	–	–	–	5.4	70.9	5.31	86.7	–	results of combination of salt with C. oleophila, in words (conclusions) (Penicillium expansum; in vivo): Very good results
calcium lactogluconate [CLG]	–	–	–	–	–	5.6	69.4	6.21	86.3	Very good results	–
N[C@@H](CCC(=O)[O-])C(=O)[O-].[Ca+2] [CGt, calcium glutamate]	51.3	–	–	–	–	–	–	–	–	–	Average infection (Botrytis cinerea): 0.8
O=C([O-])[O-].[Ca+2] [CCa, calcium carbonate]	–	–	–	–	–	–	–	–	–	–	Efficiency % (Penicillium expansum; in vivo): 77.9% and 92.8% and 97.2% and 88.6% and 85.1%; protection against P. expansum, in words (Penicillium expansum; in vivo): good protection; results of combination of salt with C. oleophila, in words (conclusions) (Penicillium expansum; in vivo): Very good results
O=[N+]([O-])[O-].O=[N+]([O-])[O-].[Ca+2] [CN, Calcium Nitrate, reference compound]	–	–	–	–	–	–	–	–	–	–	Average infection (Penicillium expansum; in vivo): 7.6 and 10.9; protection against P. expansum, in words (Penicillium expansum; in vivo): less efficient
